Source: US20240025903A1, “Bicyclic Compounds and Uses Thereof for the Treatment of Diseases” (Athira Pharma, Inc., priority 2020, published 2024)

How the values were obtained:
HGF/MET system = target: T1, HGF/MET system (Homo sapiens, UniProt P08581+P14210); assay: Phospho-MET ELISA; type: cell-based; conditions: HEK293 cells, 1 ng/mL recombinant HGF, 15 minutes, pMET ELISA
T1 construct: HEK293 cells were prepared by passage into 6-well multi-plates; endogenous in cells; host or cells: HEK293
In short: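 Serum-starved (≥8 h) HEK293 cells treated with compound plus 1 ng/mL recombinant HGF for 15 min at 37° C in triplicate, then lysed in RIPA. Equal protein (50–100 μg, BCA-normalized) run in pMET sandwich ELISA, A450 read. Responses scaled 1–10 between 1 ng/mL and 10 ng/mL HGF means, using peak efficacy.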

[1] = In vitro stability in human plasma; type: in vitro ADME; conditions: 5 μM, 37° C.
Description: (§1) Bioavailability can be estimated by compound stability when exposed to conditions in the body. As an initial assessment of stability properties in a variety of conditions present in animals, exemplary compounds were tested for stability in a battery of simulated body compartments. Compounds were tested for stability in the following solutions: simulated gastric fluid (SGF: 34.2 mM NaCl, pH 1.2), simulated gastric fluid with the digestive enzyme pepsin (SGF+Enzyme: SGF with 3.2 mg/ml pepsin), simulated intestinal fluid with the mixture of enzymes in porcine pancreatin (SIF+Enzyme: 28.7 mM NaH2PO4, 105.7 mM NaCl, pH 6.8, 10 mg/ml pancreatin), rat plasma, and human plasma.
(§2) Test compounds were incubated at a final concentration of 5 μM in the above solutions at 37° C. with samples removed at the following time points: 0, 1, 2, and 4 hours. Reactions were stopped and prepared for quantification by addition of excess quench solution containing an internal standard (acetonitrile, 200 ng/mL bucetin). Test compound and internal standard in each sample was quantified by LC-MS/MS, and after internal normalization to bucetin, test compound concentration was expressed as a percentage of concentration at the 0-hour time point. Stability in the relevant test solution was then determined by the percent remaining at the 4-hour time point.

[2] = In vitro stability in simulated gastric and intestinal fluids; type: in vitro ADME; conditions: 37° C.; for SGF + Enz (compound remaining after 4 hours): SGF with 3.2 mg/ml pepsin; for SGF + Enz (compound remaining after 4 hours) / SIF (compound remaining after 4 hours): 5 μM; for SGF (compound remaining after 4 hours): simulated gastric fluid pH 1.2, 5 μM; for SIF (compound remaining after 4 hours): simulated intestinal fluid pH 6.8 with 10 mg/ml pancreatin
Description: as §1, §2

[3] = In vitro stability in rat plasma; type: in vitro ADME; conditions: 5 μM, 37° C.
Description: as §1, §2

HepG2 cells = assay: Cytotoxicity assay (LDH release); type: cell-based; conditions: 48 hours, 0.1 to 100 μM
Description: This experiment was designed to obtain a preliminary assessment of cytotoxicity.
HepG2 cells were plated in 96-well cell culture plates and allowed to attach overnight at 37° C., 5% CO2 in EMEM+10% FBS. Treatments were made in complete media (EMEM+10% FBS) and included a dilution series of test compounds from 0.1 to 100 μM. Known cytotoxin cerivastatin was used as a positive assay control and prepared at a final concentration of 0.5 μM.
Growth media was replaced with treatment media (EMEM+10% FBS containing test compound dissolved in DMSO) and cells were incubated with test compounds for 48 hours. At the end of the incubation period, supernatant media from each well was transferred to a new plate and LDH assay working solution was added. LDH assay solution undergoes a colorimetric reaction in proportion to the amount of lactate dehydrogenase (an intracellular protein that was only found in the media in the presence of lysed cells) in the media. Color reaction was quantified by measurement of absorbance at a wavelength of 490 nm.
The signal range of the assay was determined by no manipulation in a negative control treatment and full lysis of all cells in a lysis control sample. Compounds that increase the level of cytotoxicity more than 20% above negative control samples were considered cytotoxic in this assay.

[4] = Turbidimetric solubility assay; type: physicochemical; conditions: aqueous buffer, kinetic from dmso stock, PBS, 37° C., absorbance 620 nm

T1 sequence (P08581 308-1390 limits assumed): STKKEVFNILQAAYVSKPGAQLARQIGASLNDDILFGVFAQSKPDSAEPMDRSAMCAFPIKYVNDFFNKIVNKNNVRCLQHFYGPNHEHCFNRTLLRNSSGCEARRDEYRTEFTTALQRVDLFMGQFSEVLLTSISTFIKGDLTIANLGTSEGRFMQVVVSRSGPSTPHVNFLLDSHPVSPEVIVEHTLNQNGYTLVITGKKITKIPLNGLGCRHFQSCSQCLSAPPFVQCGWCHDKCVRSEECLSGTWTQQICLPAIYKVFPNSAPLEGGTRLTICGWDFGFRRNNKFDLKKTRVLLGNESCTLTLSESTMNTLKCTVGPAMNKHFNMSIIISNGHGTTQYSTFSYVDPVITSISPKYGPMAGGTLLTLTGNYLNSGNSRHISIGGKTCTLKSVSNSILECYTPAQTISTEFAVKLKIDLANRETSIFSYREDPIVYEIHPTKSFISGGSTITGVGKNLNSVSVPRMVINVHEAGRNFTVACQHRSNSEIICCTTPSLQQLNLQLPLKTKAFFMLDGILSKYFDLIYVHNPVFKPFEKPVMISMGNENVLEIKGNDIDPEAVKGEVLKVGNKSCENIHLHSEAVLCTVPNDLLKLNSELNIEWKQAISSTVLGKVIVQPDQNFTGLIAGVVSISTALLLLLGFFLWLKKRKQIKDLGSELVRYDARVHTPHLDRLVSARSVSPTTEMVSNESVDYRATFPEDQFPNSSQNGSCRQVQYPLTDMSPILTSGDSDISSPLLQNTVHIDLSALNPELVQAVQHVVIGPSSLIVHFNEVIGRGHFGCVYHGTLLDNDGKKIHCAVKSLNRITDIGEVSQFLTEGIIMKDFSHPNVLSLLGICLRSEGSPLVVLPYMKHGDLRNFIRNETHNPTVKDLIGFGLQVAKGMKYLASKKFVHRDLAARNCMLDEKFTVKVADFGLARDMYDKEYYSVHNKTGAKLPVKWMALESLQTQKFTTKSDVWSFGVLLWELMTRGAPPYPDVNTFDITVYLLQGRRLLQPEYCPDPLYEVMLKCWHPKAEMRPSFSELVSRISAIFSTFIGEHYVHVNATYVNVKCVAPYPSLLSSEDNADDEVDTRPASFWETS
T1 sequence (P14210 32-494 limits assumed): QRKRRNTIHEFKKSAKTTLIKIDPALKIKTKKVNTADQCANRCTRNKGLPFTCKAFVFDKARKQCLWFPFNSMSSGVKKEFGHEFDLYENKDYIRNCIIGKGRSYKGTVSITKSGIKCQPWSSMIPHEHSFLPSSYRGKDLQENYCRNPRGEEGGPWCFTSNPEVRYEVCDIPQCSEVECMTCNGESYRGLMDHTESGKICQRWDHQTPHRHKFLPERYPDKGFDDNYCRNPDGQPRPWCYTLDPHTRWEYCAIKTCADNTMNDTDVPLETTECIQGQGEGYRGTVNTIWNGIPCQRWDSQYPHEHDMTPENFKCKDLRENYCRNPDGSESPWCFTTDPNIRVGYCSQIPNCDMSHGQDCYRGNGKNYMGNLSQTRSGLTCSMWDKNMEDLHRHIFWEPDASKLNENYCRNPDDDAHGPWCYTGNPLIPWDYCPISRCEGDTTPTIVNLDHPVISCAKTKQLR

| SMILES | solubility at 2 h [4] | Potency (augmentation of MET phosphorylation) (HGF/MET system) | Human Plasma (compound remaining after 4 hours) [1] | SGF + Enz (compound remaining after 4 hours) [2] | SGF (compound remaining after 4 hours) [2] | SIF (compound remaining after 4 hours) [2] | Rat Plasma (compound remaining after 4 hours) [3] | Cytotoxicity (HepG2 cells) |
| --- | --- | --- | --- | --- | --- | --- | --- | --- |
| CCC(C)CN1CC2N(C(=O)c3ccc(C(F)(F)F)c(Cl)c3)CCC(=O)N2C(C)C1=O (stereo not shown) [Compound 12, 1-(3-chloro-4-(trifluoromethyl)benzoyl)-6-methyl-8-(2-methylbutyl)hexahydro-4H-pyrazino[1,2-a]pyrimidine-4,7(6H)-dione] | > 300 µM | ++ (++ indicates maximum potency at or above 10 nM) | +++ (+++ indicates 80-99% compound remaining after 4 hours) | +++ (+++ indicates 80-99% compound remaining after 4 hours) | +++ (+++ indicates 80-99% compound remaining after 4 hours) | ++ (++ indicates 40-79% compound remaining after 4 hours) | ++++ (++++ indicates 100% compound remaining after 4 hours) | ++++ (++++ indicates non-toxic at 100 μM) |
| CCC(C)CN1CC2N(Cc3ccc(C(F)(F)F)cc3)CCC(=O)N2[C@@H](C)C1=O (stereo partly shown) [Compound 5a] | > 300 µM | + (+ indicates maximum potency at or above 100 nM) | ++ (++ indicates 40-79% compound remaining after 4 hours) | + (+ indicates 20-39% compound remaining after 4 hours) | +++ (+++ indicates 80-99% compound remaining after 4 hours) | +++ (+++ indicates 80-99% compound remaining after 4 hours) | ++ (++ indicates 40-79% compound remaining after 4 hours) | ++++ (++++ indicates non-toxic at 100 μM) |
| CCCCN1CC2N(C(=O)c3ccc(OC(F)F)cc3)CCC(=O)N2C(C)C1=O (stereo not shown) [Compound 17] | > 300 µM | +++ (+++ indicates maximum potency at or above 1 nM) | +++ (+++ indicates 80-99% compound remaining after 4 hours) | +++ (+++ indicates 80-99% compound remaining after 4 hours) | +++ (+++ indicates 80-99% compound remaining after 4 hours) | +++ (+++ indicates 80-99% compound remaining after 4 hours) | ++ (++ indicates 40-79% compound remaining after 4 hours) | ++++ (++++ indicates non-toxic at 100 μM) |

Further lines, with some results ahead:

| solubility at 2 h [4] | SMILES | Potency (augmentation of MET phosphorylation) (HGF/MET system) | Human Plasma (compound remaining after 4 hours) [1] | SGF + Enz (compound remaining after 4 hours) [2] | SGF (compound remaining after 4 hours) [2] | SIF (compound remaining after 4 hours) [2] | Rat Plasma (compound remaining after 4 hours) [3] | Cytotoxicity (HepG2 cells) |
| --- | --- | --- | --- | --- | --- | --- | --- | --- |
| > 300 µM | CC1C(=O)N(CCC2CCC2)CC2N(C(=O)c3ccc(C(F)(F)F)cc3)CCC(=O)N12 (stereo not shown) [Compound 20] | + (+ indicates maximum potency at or above 100 nM) | +++ (+++ indicates 80-99% compound remaining after 4 hours) | +++ (+++ indicates 80-99% compound remaining after 4 hours) | +++ (+++ indicates 80-99% compound remaining after 4 hours) | +++ (+++ indicates 80-99% compound remaining after 4 hours) | ++ (++ indicates 40-79% compound remaining after 4 hours) | ++++ (++++ indicates non-toxic at 100 μM) |
| > 300 µM | C=CCCN1CC2N(C(=O)c3ccc(C(F)(F)F)cc3)CCC(=O)N2C(C)C1=O (stereo not shown) [Compound 22] | +++ (+++ indicates maximum potency at or above 1 nM) | +++ (+++ indicates 80-99% compound remaining after 4 hours) | +++ (+++ indicates 80-99% compound remaining after 4 hours) | +++ (+++ indicates 80-99% compound remaining after 4 hours) | +++ (+++ indicates 80-99% compound remaining after 4 hours) | +++ (+++ indicates 80-99% compound remaining after 4 hours) | ++++ (++++ indicates non-toxic at 100 μM) |
